Reference: ChEMBL document CHEMBL1129930, “Analogues of methotrexate in rheumatoid arthritis. 2. Effects of 5-deazaaminopterin, 5,10-dideazaaminopterin, and analogues on type II collagen-induced arthritis in mice” (J Med Chem, 1997)

Experiments:
[1] = test system: Mus musculus; assay: Tested for antiinflammatory activity on mouse type II collagen arthritis as Paw swelling of all animals in each group on day 37 at intraperitoneal dose of 6 mg/kg; format: functional
[2] = test system: Mus musculus; assay: Incidence of disease (mouse type II collagen) was scored as the percentage of animals within each experimental group that exhibited joint or limb inflammation on day 37 at intraperitoneal dose of 12 mg/kg; format: functional
[3] = test system: Mus musculus; assay: Tested for antiinflammatory activity on mouse type II collagen arthritis as Paw swelling of all animals in each group on day 23 at intraperitoneal dose of 12 mg/kg; format: functional
[4] = test system: Mus musculus; assay: Incidence of disease (mouse type II collagen) was scored as the percentage of animals within each experimental group that exhibited joint or limb inflammation on day 44 at intraperitoneal dose of 12 mg/kg; format: functional
[5] = test system: Mus musculus; assay: Incidence of disease (mouse type II collagen) was scored as the percentage of animals within each experimental group that exhibited joint or limb inflammation on day 37 at intraperitoneal dose of 6 mg/kg; format: functional
[6] = test system: Mus musculus; assay: Tested for antiinflammatory activity on mouse type II collagen arthritis as Paw swelling of all animals in each group on day 23 at intraperitoneal dose of 18 mg/kg; format: functional
[7] = test system: Mus musculus; assay: Tested for antiinflammatory activity on mouse type II collagen arthritis as Paw swelling of all animals in each group on day 44 at intraperitoneal dose of 12 mg/kg; format: functional
[8] = test system: Mus musculus; assay: Tested for antiinflammatory activity on mouse type II collagen arthritis as Paw swelling of all animals in each group on day 37 at intraperitoneal dose of 18 mg/kg; format: functional
[9] = test system: Mus musculus; assay: Incidence of disease (mouse type II collagen) was scored as the percentage of animals within each experimental group that exhibited joint or limb inflammation on day 44 at intraperitoneal dose of 18 mg/kg; format: functional
[10] = test system: Mus musculus; assay: Incidence of disease (mouse type II collagen) was scored as the percentage of animals within each experimental group that exhibited joint or limb inflammation on day 23 at intraperitoneal dose of 12 mg/kg; format: functional
[11] = test system: Mus musculus; assay: Incidence of disease (mouse type II collagen) was scored as the percentage of animals within each experimental group that exhibited joint or limb inflammation on day 37 at intraperitoneal dose of 18 mg/kg; format: functional
[12] = test system: Mus musculus; assay: Incidence of disease (mouse type II collagen) was scored as the percentage of animals within each experimental group that exhibited joint or limb inflammation on day 30 at intraperitoneal dose of 12 mg/kg; format: functional
[13] = test system: Mus musculus; assay: Tested for antiinflammatory activity on mouse type II collagen arthritis as Paw swelling of all animals in each group on day 30 at intraperitoneal dose of 18 mg/kg; format: functional
[14] = test system: Mus musculus; assay: Incidence of disease (mouse type II collagen) was scored as the percentage of animals within each experimental group that exhibited joint or limb inflammation on day 23 at intraperitoneal dose of 18 mg/kg; format: functional
[15] = test system: Mus musculus; assay: Incidence of disease (mouse type II collagen) was scored as the percentage of animals within each experimental group that exhibited joint or limb inflammation on day 30 at intraperitoneal dose of 6 mg/kg; format: functional
[16] = test system: Mus musculus; assay: Incidence of disease (mouse type II collagen) was scored as the percentage of animals within each experimental group that exhibited joint or limb inflammation on day 30 at intraperitoneal dose of 18 mg/kg; format: functional
[17] = test system: Mus musculus; assay: Tested for antiinflammatory activity on mouse type II collagen arthritis as Paw swelling of all animals in each group on day 30 at intraperitoneal dose of 6 mg/kg; format: functional
[18] = test system: Mus musculus; assay: Tested for antiinflammatory activity on mouse type II collagen arthritis as Paw swelling of all animals in each group on day 30 at intraperitoneal dose of 12 mg/kg; format: functional
[19] = test system: Mus musculus; assay: Tested for antiinflammatory activity on mouse type II collagen arthritis as Paw swelling of all animals in each group on day 37 at intraperitoneal dose of 12 mg/kg; format: functional
[20] = test system: L1210; assay: Concentration required to inhibit the growth of L1210 cells.; format: functional, cell-based; settings: Mus musculus
[21] = Concentration required to inhibit the growth of chang liver cells.; format: functional; settings: Homo sapiens
[22] = test system: Mus musculus; assay: Incidence of disease (mouse type II collagen) was scored as the percentage of animals within each experimental group that exhibited joint or limb inflammation on day 44 at intraperitoneal dose of 6 mg/kg; format: functional
[23] = test system: Mus musculus; assay: Tested for antiinflammatory activity on mouse type II collagen arthritis as Paw swelling of all animals in each group on day 23 at intraperitoneal dose of 6 mg/kg; format: functional
[24] = test system: Mus musculus; assay: Incidence of disease (mouse type II collagen) was scored as the percentage of animals within each experimental group that exhibited joint or limb inflammation on day 23 at intraperitoneal dose of 6 mg/kg; format: functional
[25] = test system: Mus musculus; assay: Tested for antiinflammatory activity on mouse type II collagen arthritis as Paw swelling of all animals in each group on day 44 at intraperitoneal dose of 6 mg/kg; format: functional
[26] = test system: Mus musculus; assay: Tested for antiinflammatory activity on mouse type II collagen arthritis as Paw swelling of all animals in each group on day 44 at intraperitoneal dose of 18 mg/kg; format: functional
[27] = test system: Mus musculus; assay: Incidence of disease (mouse type II collagen) was scored as the percentage of animals within each experimental group that exhibited joint or limb inflammation on day 44 at intraperitoneal dose of 0.50 mg/kg (deaths observed at 1.5 mg/kg); format: functional
[28] = test system: Mus musculus; assay: Incidence of disease (mouse type II collagen) was scored as the percentage of animals within each experimental group that exhibited joint or limb inflammation on day 30 at intraperitoneal dose of 0.25 mg/kg (deaths observed at 1.5 mg/kg); format: functional
[29] = test system: Mus musculus; assay: Incidence of disease (mouse type II collagen) was scored as the percentage of animals within each experimental group that exhibited joint or limb inflammation on day 23 at intraperitoneal dose of 1 mg/kg (deaths observed at 1.5 mg/kg); format: functional
[30] = test system: Mus musculus; assay: Tested for antiinflammatory activity on mouse type II collagen arthritis as Paw swelling of all animals in each group on day 44 at intraperitoneal dose of 1 mg/kg; format: functional
[31] = test system: Mus musculus; assay: Tested for antiinflammatory activity on mouse type II collagen arthritis as Paw swelling of all animals in each group on day 30 at intraperitoneal dose of 1 mg/kg; format: functional
[32] = test system: Mus musculus; assay: Incidence of disease (mouse type II collagen) was scored as the percentage of animals within each experimental group that exhibited joint or limb inflammation on day 30 at intraperitoneal dose of 0.50 mg/kg (deaths observed at 1.5 mg/kg); format: functional
[33] = test system: Mus musculus; assay: Tested for antiinflammatory activity on mouse type II collagen arthritis as Paw swelling of all animals in each group on day 37 at intraperitoneal dose of 1 mg/kg; format: functional
[34] = test system: Mus musculus; assay: Incidence of disease (mouse type II collagen) was scored as the percentage of animals within each experimental group that exhibited joint or limb inflammation on day 44 at intraperitoneal dose of 0.25 mg/kg (deaths observed at 1.5 mg/kg); format: functional
[35] = test system: Mus musculus; assay: Incidence of disease (mouse type II collagen) was scored as the percentage of animals within each experimental group that exhibited joint or limb inflammation on day 44 at intraperitoneal dose of 1 mg/kg (deaths observed at 1.5 mg/kg); format: functional
[36] = test system: Mus musculus; assay: Incidence of disease (mouse type II collagen) was scored as the percentage of animals within each experimental group that exhibited joint or limb inflammation on day 23 at intraperitoneal dose of 0.50 mg/kg (deaths observed at 1.5 mg/kg); format: functional
[37] = test system: Mus musculus; assay: Tested for antiinflammatory activity on mouse type II collagen arthritis as Paw swelling of all animals in each group on day 44 at intraperitoneal dose of 0.25 mg/kg; format: functional
[38] = test system: Mus musculus; assay: Incidence of disease (mouse type II collagen) was scored as the percentage of animals within each experimental group that exhibited joint or limb inflammation on day 37 at intraperitoneal dose of 1 mg/kg (deaths observed at 1.5 mg/kg); format: functional
[39] = test system: Mus musculus; assay: Incidence of disease (mouse type II collagen) was scored as the percentage of animals within each experimental group that exhibited joint or limb inflammation on day 37 at intraperitoneal dose of 0.25 mg/kg (deaths observed at 1.5 mg/kg); format: functional
[40] = test system: Mus musculus; assay: Incidence of disease (mouse type II collagen) was scored as the percentage of animals within each experimental group that exhibited joint or limb inflammation on day 37 at intraperitoneal dose of 0.50 mg/kg (deaths observed at 1.5 mg/kg); format: functional
[41] = test system: Mus musculus; assay: Tested for antiinflammatory activity on mouse type II collagen arthritis as Paw swelling of all animals in each group on day 37 at intraperitoneal dose of 0.50 mg/kg; format: functional; settings: dose 0.5 mg/kg
[42] = test system: Mus musculus; assay: Tested for antiinflammatory activity on mouse type II collagen arthritis as Paw swelling of all animals in each group on day 30 at intraperitoneal dose of 0.50 mg/kg; format: functional; settings: dose 0.5 mg/kg
[43] = test system: Mus musculus; assay: Tested for antiinflammatory activity on mouse type II collagen arthritis as Paw swelling of all animals in each group on day 37 at intraperitoneal dose of 0.25 mg/kg; format: functional
[44] = test system: Mus musculus; assay: Tested for antiinflammatory activity on mouse type II collagen arthritis as Paw swelling of all animals in each group on day 30 at intraperitoneal dose of 0.25 mg/kg; format: functional
[45] = test system: Mus musculus; assay: Tested for antiinflammatory activity on mouse type II collagen arthritis as Paw swelling of all animals in each group on day 23 at intraperitoneal dose of 0.25 mg/kg; format: functional
[46] = test system: Mus musculus; assay: Tested for antiinflammatory activity on mouse type II collagen arthritis as Paw swelling of all animals in each group on day 44 at intraperitoneal dose of 0.50 mg/kg; format: functional; settings: dose 0.5 mg/kg
[47] = test system: Mus musculus; assay: Incidence of disease (mouse type II collagen) was scored as the percentage of animals within each experimental group that exhibited joint or limb inflammation on day 23 at intraperitoneal dose of 0.25 mg/kg (deaths observed at 1.5 mg/kg); format: functional
[48] = test system: Mus musculus; assay: Tested for antiinflammatory activity on mouse type II collagen arthritis as Paw swelling of all animals in each group on day 23 at intraperitoneal dose of 0.50 mg/kg; format: functional; settings: dose 0.5 mg/kg
[49] = test system: Mus musculus; assay: Incidence of disease (mouse type II collagen) was scored as the percentage of animals within each experimental group that exhibited joint or limb inflammation on day 30 at intraperitoneal dose of 1 mg/kg (deaths observed at 1.5 mg/kg); format: functional

Molecule `Nc1nc(N)c2cc(CCc3ccc(C(=O)NC(CCC(=O)O)C(=O)O)cc3)cnc2n1` (stereo unspecified) has a Paw swelling [1] of 2.26 mm, an Animals [2] of 12% and a Paw swelling [3] of 2.12 mm. For the same molecule, the Animals [4] was 25%, the Animals [5] was 25% and the Paw swelling [6] was 2.15 mm. For the same molecule, the Paw swelling [7] was 2.28 mm, the Paw swelling [8] was 2.15 mm and the Animals [9] was 0%. For the same molecule, the Animals [10] was 0%, the Animals [11] was 0% and the Animals [12] was 12%. It also gave a Paw swelling [13] of 2.16 mm, an Animals [14] of 12% and an Animals [15] of 25%. For the same molecule, the Animals [16] was 0%, the Paw swelling [17] was 2.28 mm and the Paw swelling [18] was 2.24 mm. It also gave a Paw swelling [19] of 2.24 mm, an IC50 [20] of 27 nM and an IC50 [21] of 37 nM. For the same molecule, the Animals [22] was 38%, the Paw swelling [23] was 2.17 mm and the Animals [24] was 12%. It also gave a Paw swelling [25] of 2.29 mm and a Paw swelling [26] of 2.2 mm.
With `CCc1c(CNc2ccc(C(=O)NC(CCC(=O)O)C(=O)O)cc2)cnc2nc(N)nc(N)c12` (stereo unspecified) the Animals [27] was 71%, the Animals [28] was 0% and the Animals [29] was 12%. It also gave a Paw swelling [30] of 2.29 mm, a Paw swelling [31] of 2.19 mm and an Animals [32] of 57%. The Paw swelling [33] was 2.32 mm, the Animals [34] was 62% and the Animals [35] was 62%. It also gave an Animals [36] of 43%, a Paw swelling [37] of 2.33 mm and an Animals [38] of 62%. The Animals [39] was 50%, the IC50 [20] was 1.9 nM and the Animals [40] was 86%. The IC50 [21] was 126 nM, the Paw swelling [41] was 2.42 mm and the Paw swelling [42] was 2.38 mm. For the same molecule, the Paw swelling [43] was 2.34 mm, the Paw swelling [44] was 2.22 mm and the Paw swelling [45] was 2.25 mm. It also gave a Paw swelling [46] of 2.43 mm, an Animals [47] of 38% and a Paw swelling [48] of 2.31 mm. For the same molecule, the Animals [49] was 25%.
